For data set [1], the target named is T1, human PPARγ1 (Homo sapiens, UniProt P37231).
T1 construct: made in house; host or cells: COS-1 cells transiently transfected with pMCMVneo-hPPARγ; crude supernatant of the lysate, not purified
T1 sequence (P37231 1-477 isoform P37231-2): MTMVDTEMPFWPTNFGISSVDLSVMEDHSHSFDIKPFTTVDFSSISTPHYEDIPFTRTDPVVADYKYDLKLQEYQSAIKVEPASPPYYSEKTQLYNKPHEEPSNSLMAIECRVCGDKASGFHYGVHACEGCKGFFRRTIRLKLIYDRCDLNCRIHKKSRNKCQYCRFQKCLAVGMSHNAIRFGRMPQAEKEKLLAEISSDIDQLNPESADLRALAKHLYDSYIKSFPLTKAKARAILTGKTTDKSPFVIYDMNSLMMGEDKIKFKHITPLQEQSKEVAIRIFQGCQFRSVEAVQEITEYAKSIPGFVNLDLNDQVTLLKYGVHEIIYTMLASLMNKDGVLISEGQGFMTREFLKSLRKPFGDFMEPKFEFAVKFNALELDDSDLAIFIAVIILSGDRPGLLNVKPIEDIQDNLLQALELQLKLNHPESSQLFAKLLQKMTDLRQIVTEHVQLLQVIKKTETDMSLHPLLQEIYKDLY
Nature of the data set: Measurement of human PPARγ1 binding activity ([3H]-compound A displacement). Conditions: cell extract with 1.5 μg/ml full length hPPARγ1, 20 nM [3H]-compound A, 4° C., 16 hrs. On the procedure:
A cell extract containing 1.5 μg/ml of full length hPPARγ1 prepared in Reference Example 7a, 20 nM [^3H]-compound A (16 Ci/mmol)(Amersham Pharmacia Biotech) and a test compound were reacted in TEGM buffer at 4° C. for 16 hrs. To the reaction mixture was added activated carbon (Sigma) coated with 140 μl of dextran (Amersham Pharmacia Biotech) and gelatin (Sigma), and the mixture was left standing at 4° C. for 10 min and centrifuged at 910×g for 10 min. After centrifugation, the radioactivity of 30 μl of supernatant was measured with Topcount (Packard). In addition, a test similar to the above was conducted for the non-use of the aforementioned test compound and for the use of 100 μM of compound A instead of the aforementioned test compound, and the radioactivity was determined.
The human PPARγ1 binding activity of the test compound was evaluated using percentages wherein the measured value of the radioactivity when 20 nM [^3H]-compound A alone was added was 100%, and the measured value of the radioactivity when 20 nM [^3H]-compound A and 100 μM of compound A were simultaneously added was 0%. Moreover, the IC50 value of the test compound was calculated based on the analysis of the compound concentration and the percentage using PRISM3.0 (Graph Pad, Inc.).
COS-1 cells were seeded in a 150 cm^2 tissue culture flask (Corning Inc.) at 5×10^6 cells, and cultured under 37° C. 5% CO2 conditions for 24 hrs. Transfection was performed using lipofectamine (GIBCO BRL). To be specific, 125 μl of lipofectamine, 100 μl of PLUS Reagent and 15 μg of hPPARγ expression plasmid (plasmid pMCMVneo-hPPARγ obtained in Reference Example 6a) were mixed with opti-MEM (GIBCO BRL) to give a transfection mixture. The transfection mixture (25 ml) was added to COS-1 cells and the cells were cultured under 37° C. 5% CO2 conditions for 3 hrs. Then 25 ml of DMEM medium (Nikken Biomedical Laboratory) containing 10% FCS treated with activated carbon (Sigma) was added to the cells and the cells were cultured under 37° C. 5% CO2 conditions. After 24 hrs., the medium was substituted with 50 ml of DMEM medium (Nikken Biomedical Laboratory) containing 5% FCS treated with activated carbon, and the cells were cultured under 37° C., 5% CO2 conditions. After 48 hrs, the transfected cells were recovered and washed with TEG buffer (10 mM Tris-HCl (pH 7.2), 50 mM EDTA, 10% glycerol). The cells were suspended in 1 ml TEGM buffer (10 mM Tris-HCl (pH 7.2), 1 mM EDTA, 10% glycerol, 7 μl/100 ml β-mercaptoethanol, 10 mM Na molybdate, 1 mM dithiothreitol, 2 tablets/100 ml Protease inhibitor Cocktail tablets (Boehringer Mannheim)) and, for cell lysis, frozen with liquid nitrogen and thawed on ice. To remove the debris of the cells, the extract was centrifuged at 228,000×g, 4° C. for 20 min. and the supernatant was preserved at −80° C. until use.

Each structure is given as a SMILES string.

What is called IC50 is the point on the concentration scale where inhibition reaches its midpoint. The low end stands for greater potency in that assay, the high end for weaker potency in that assay. As usually defined, the melting point is the temperature of the solid-liquid transition.

In turn, `Cc1oc(-c2ccco2)nc1COc1ccc(COc2nn(Cc3ccccc3)cc2C=O)cn1` [Example 42, 1-benzyl-3-[(6-{[2-(2-furyl)-5-methyl-1,3-oxazol-4-yl]methoxy}-3-pyridinyl)methoxy]-1H-pyrazole-4-carbaldehyde] yielded a melting point of 104 to 105 °C. This compound showed an IC50 in data set [1] of 1100 nM. `CCOC(=O)c1cn(-c2ccccc2)nc1OCc1ccc(OCc2nc(-c3ccco3)oc2C)c(OC)c1` [Example 72, ethyl 3-[(4-{[2-(2-furyl)-5-methyl-1,3-oxazol-4-yl]methoxy}-3-methoxybenzyl)oxy]-1-phenyl-1H-pyrazole-4-carboxylate] yielded a melting point of 150 to 151 °C. For the same compound, the IC50 in data set [1] came out at 770 nM.

Regarding `COc1cc(COc2nn(-c3ccccc3)cc2CO)ccc1OCc1nc(-c2ccco2)oc1C` [Example 75, {3-[(4-{[2-(2-furyl)-5-methyl-1,3-oxazol-4-yl]methoxy}-3-methoxybenzyl)oxy]-1-phenyl-1H-pyrazol-4-yl}methanol], in data set [1], the IC50 was 660 nM. Compound `COc1cc(COc2nn(-c3ccccc3)cc2C=O)ccc1OCc1nc(-c2ccco2)oc1C` [Example 76, 3-[(4-{[2-(2-furyl)-5-methyl-1,3-oxazol-4-yl]methoxy}-3-methoxybenzyl)oxy]-1-phenyl-1H-pyrazole-4-carbaldehyde] yielded a melting point of 137 to 138 °C. In data set [1], this compound had an IC50 of 190 nM.

`COc1cc(COc2nn(-c3ccccc3)cc2C#N)ccc1OCc1nc(-c2ccco2)oc1C` [Example 77, 3-[(4-{[2-(2-furyl)-5-methyl-1,3-oxazol-4-yl]methoxy)-3-methoxybenzyl)oxy]-1-phenyl-1H-pyrazole-4-carbonitrile] gave a melting point of 167 to 168 °C. For the same compound, the IC50 in data set [1] is 79 nM. As for `CCOP(=O)(CCc1cn(-c2ccccc2)nc1OCc1ccc(OCc2nc(-c3ccco3)oc2C)c(OC)c1)OCC` [Example 100, diethyl 2-{3-[(4-{[2-(2-furyl)-5-methyl-1,3-oxazol-4-yl]methoxy}-3-methoxybenzyl)oxy]-1-phenyl-1H-pyrazol-4-yl}ethylphosphonate], the IC50 in data set [1] came to 210 nM. Still for that read-out and setting: with `CCOP(=O)(/C=C/c1cn(-c2ccccc2)nc1OCc1ccc(OCc2nc(-c3ccco3)oc2C)c(OC)c1)OCC` [Example 116 (E form), diethyl (E)-2-{3-[(4-{[2-(2-furyl)-5-methyl-1,3-oxazol-4-yl]methoxy}-3-methoxybenzyl)oxy]-1-phenyl-1H-pyrazol-4-yl}ethenylphosphonate] the figure was 39 nM. As for `COc1cc(COc2nn(-c3ccccc3)cc2/C=C/P(=O)(OC(C)C)OC(C)C)ccc1OCc1nc(-c2ccco2)oc1C` [Example 145, diisopropyl (E)-2-{3-[(4-{[2-(2-furyl)-5-methyl-1,3-oxazol-4-yl]methoxy}-3-methoxybenzyl)oxy]-1-phenyl-1H-pyrazol-4-yl}ethenylphosphonate], the melting point is 152 to 153 °C. In addition, the concentration for half-maximal inhibition (IC50) in data set [1] is 80 nM. On the same counts, the results for `CCOP(=O)(/C=C/c1cn(-c2ccccc2)nc1OCc1ccc(OCc2nc(-c3ccccc3)oc2C)c(OC)c1)OCC` [Example 146, diethyl (E)-2-[3-({3-methoxy-4-[(5-methyl-2-phenyl-1,3-oxazol-4-yl)methoxy]benzyl}oxy)-1-phenyl-1H-pyrazol-4-yl]ethenylphosphonate] are 92 to 93 °C and 68 nM. `COc1cc(COc2nn(-c3ccccc3)cc2/C=C/c2csc(C)n2)ccc1OCc1nc(-c2ccco2)oc1C` [Example 150 (E form), 2-(2-furyl)-4-({2-methoxy-4-[({4-[(E)-2-(2-methyl-1,3-thiazol-4-yl)ethenyl]-1-phenyl-1H-pyrazol-3-yl}oxy)methyl]phenoxy}methyl)-5-methyl-1,3-oxazole] registered a melting point of 111 to 112 °C. The compound also had an IC50 in data set [1] of 50 nM. Take `CCOP(=O)(/C=C/c1cn(-c2ccccc2)nc1OCc1ccc(OCc2nc(-c3ccc(CC(=O)O)cc3)oc2C)c(OC)c1)OCC` [Example 241, {4-[4-({4-[({4-[(E)-2-(diethoxyphosphoryl)ethenyl]-1-phenyl-1H-pyrazol-3-yl}oxy)methyl]-2-methoxyphenoxy}methyl)-5-methyl-1,3-oxazol-2-yl]phenyl}acetic acid]: in data set [1], the concentration for half-maximal inhibition (IC50) was 69 nM. Still for that read-out and setting: with `CCOP(=O)(/C=C/c1cn(-c2ccccc2)nc1OCc1ccc(OCc2nc(-c3cccc(CC(=O)O)c3)oc2C)c(OC)c1)OCC` [Example 249, {3-[4-({4-[({4-[(E)-2-(diethoxyphosphoryl)ethenyl]-1-phenyl-1H-pyrazol-3-yl}oxy)methyl]-2-methoxyphenoxy}methyl)-5-methyl-1,3-oxazol-2-yl]phenyl}acetic acid] the figure was 33 nM; with `CCOP(=O)(/C=C/c1cn(-c2ccccc2)nc1OCc1ccc(OCc2nc(-c3cccc(-c4nnn[nH]4)c3)oc2C)c(OC)c1)OCC` [Example 336, {(E)-2-(3-{[3-methoxy-4-({5-methyl-2-[3-(1H-tetrazol-5-yl)phenyl]-1,3-oxazol-4-yl}methoxy)benzyl]oxy}-1-phenyl-1H-pyrazol-4-yl)ethenyl}phosphonate diethyl], 7.7 nM; with `CCc1nc(/C=C/c2cn(-c3ccccc3)nc2OCc2ccc(OCc3nc(-c4ccc(CC(=O)O)cc4)oc3C)c(OC)c2)cs1` [Example 337, {4-[4-({4-[({4-[(E)-2-(2-ethyl-1,3-thiazol-4-yl)ethenyl]-1-phenyl-1H-pyrazol-3-yl}oxy)methyl]-2-methoxyphenoxy}methyl)-5-methyl-1,3-oxazol-2-yl]phenyl}acetic acid], 66 nM. Turning to `COc1cc(COc2nn(-c3ccccc3)cc2/C=C/c2csc(C)n2)ccc1OCc1nc(-c2ccc(CC(=O)O)cc2)oc1C` [Example 357, {4-[4-({2-methoxy-4-[({4-[(E)-2-(2-methyl-1,3-thiazol-4-yl)ethenyl]-1-phenyl-1H-pyrazol-3-yl}oxy)methyl]phenoxy}methyl)-5-methyl-1,3-oxazol-2-yl]phenyl}acetic acid], the half-inhibitory concentration (IC50) in data set [1] amounted to 150 nM.

In data set [1], `COc1cc(COc2nn(-c3ccccc3)cc2/C=C/c2csc(C(C)C)n2)ccc1OCc1nc(-c2ccc(CC(=O)O)cc2)oc1C` [Example 361, {4-[4-({4-[({4-[(E)-2-(2-isopropyl-1,3-thiazol-4-yl)ethenyl]-1-phenyl-1H-pyrazol-3-yl}oxy)methyl]-2-methoxyphenoxy}methyl)-5-methyl-1,3-oxazol-2-yl]phenyl}acetic acid] registered a half-inhibitory concentration (IC50) of 38 nM. `CCc1nc(/C=C/c2cn(-c3ccccc3)nc2OCc2ccc(OCc3nc(-c4ccc(CC(=O)O)cc4)oc3C)c(OC)c2)co1` [Example 369, {4-[4-({4-[({4-[(E)-2-(2-ethyl-1,3-oxazol-4-yl)ethenyl]-1-phenyl-1H-pyrazol-3-yl}oxy)methyl]-2-methoxyphenoxy}methyl)-5-methyl-1,3-oxazol-2-yl]phenyl}acetic acid] registered an IC50 in data set [1] of 83 nM. As for `COc1cc(COc2nn(-c3ccccc3)cc2/C=C/c2coc(C(C)C)n2)ccc1OCc1nc(-c2ccc(CC(=O)O)cc2)oc1C` [Example 370, {4-[4-({4-[({4-[(E)-2-(2-isopropyl-1,3-oxazol-4-yl)ethenyl]-1-phenyl-1H-pyrazol-3-yl}oxy)methyl]-2-methoxyphenoxy}methyl)-5-methyl-1,3-oxazol-2-yl]phenyl}acetic acid], the 50% inhibitory concentration (IC50) in data set [1] was 32 nM.

The record behind these values is US7368578B2, “Five-membered heterocyclic compounds” (Takeda Pharmaceutical Company Limited, priority 2002, dated 2008).
